Series [1] has as its system HuTu-80 cells. Nature of the series: MTT cytotoxicity assay, HuTu-80. Type of series: cell-based. The following applies: Homo sapiens, HuTu80, 24 h, read-out: IC50, Duodenum, HuTu-80. The method, then: In the first step of the study, we analyzed the cytotoxicity of novel soloxolone derivatives 1–12 in a panel of tumor cells, including human cervical carcinoma HeLa, human duodenal carcinoma HuTu-80 and murine melanoma B16 cells, as well as human non-transformed hFF3 foreskin fibroblasts. The cells were treated with derivatives for 24 h and cell viability was evaluated by 3-(4,5-dimethylthiazol-2-yl)-2,5-diphenyltetrazolium bromide (MTT) assay. SM was used as the reference compound.
The cells in the exponential growth phase were seeded in quadruplicate in 96-well plates at a density of 1 × 10^4 cells/well for HeLa, U87, U118, KELLY and Neuro2a cells; 1.5 × 10^4 cells/well for HuTu-80 cells; 2 × 10^4 cells/well for B16 cells; and 7 × 10^3 cells/well for hFF3 fibroblasts. Cells were incubated under standard conditions overnight followed by their treatment with the investigated compounds (1–20 µM) for 24 h. Then, 10 µL of MTT solution was added to the cells to a final concentration of 0.5 mg/mL and plates were placed under standard conditions for 3 h followed by an aspiration of MTT-containing medium and a dissolution of formazan crystals with 100 µL of DMSO. The absorbance of each well was read at test and reference wavelengths of 570 and 620 nm, respectively, on a Multiscan RC plate reader (Thermo LabSystems, Helsinki, Finland).
A general note: Tetrazolium dyes change colour on reduction, which living cells bring about.

Series [2] in a line: Brain accumulation of 12 by HPLC–MS/MS. It is filed as in vivo, Balb/C nude mice. The following applies: seven injections. The method, then: (seven injections were performed in total) and brain tissue was collected 48 h after the last injection of 12 followed by a high-performance liquid chromatography–tandem mass spectrometry (HPLC–MS/MS) analysis of the obtained samples (Figure 3D). This treatment regimen was chosen due to its common usage in the evaluation of antitumor activity of various low-molecular weight compounds in xenograft murine models. […] Before the HPLC–MS/MS analysis, chromatographic conditions and mass spectrometer parameters for detecting both semisynthetic triterpenoid 12 and the internal standard in the multiple reaction monitoring (MRM) mode were optimized. […]
To estimate the content of 12 in mouse brain tissue, a set of calibrators was prepared followed by their preparation protocol. The obtained samples were analyzed using the developed HPLC–MS/MS method and a calibration curve was built over the range of concentrations of 10–1000 ng/g. […] The validation of the method for quantification of 12 in mouse brain tissue and investigation of its pharmacokinetics will be the objectives of our next study. […]
To prepare calibrators, mouse brain tissue samples taken from three healthy untreated animals were pooled and homogenized as described above. […] The obtained supernatants were transferred into vial inserts and analyzed. To quantify 12 in experimental animal brain tissue, a sample weighing c.a. […]

For series [3], the system named is U87 cells. Briefly: Vasculogenic mimicry on Matrigel. It is filed as cell-based, human. To be noted: 12 at 200 nM, 5 h. On the procedure: Considering that vasculogenic mimicry (VM), a process whereby tumor cells form tumor cell-lined vasculatures to reinforce blood supply to cancerous tissue, plays a crucial role in glioblastoma progression and aggressiveness and that some pentacyclic triterpenoids can inhibit this process, next we studied whether 12 affects VM in glioblastoma cells.
A 96-well plate was placed on ice for pre-cooling and Matrigel®® Matrix (Corning, Corning, NY, USA) was thawed at 4 °C and added to each well of the plate (50 μL/well). Then, the plate was placed at 37 °C in 5% CO2 for 1 h to solidify the Matrigel. U87 cells were seeded at 2 × 10^4 cells/well on the Matrigel-coated wells and treated with 12 at 200 nM for 5 h. At the end of the incubation time, each well was analyzed under a microscope with a phase contrast Primo Vert (ZEISS, Germany). Tubular structures in each field were imaged with a AxioCam ERc5s camera (ZEISS, Germany) and the average number of tubules from three to four random fields in each well was quantified by ImageJ. The experiment was performed in triplicate.

The subject of series [4] is glioblastoma cells. Briefly: Cell survival at non-toxic concentrations. The following applies: 12 at 25–500 nM (non-toxic concentrations). Type of series: cell-based. The method, then: To evaluate the antitumor potential of 12 more comprehensively, its effects at non-toxic concentrations (25–500 nM; cell survival of ≥90%) on a range of metastatic-related processes in glioblastoma cells were studied. Firstly, we investigated the inhibitory activity of 12 on the clonogenic capacity of tumor cells in vitro, which reflects their ability to form colonies from single cells which characterizes the stemness of tumor cells and plays a crucial role in metastasis.

Here are results for 1 compound from publication PMC9145754, “Novel Soloxolone Amides as Potent Anti-Glioblastoma Candidates: Design, Synthesis, In Silico Analysis and Biological Activities In Vitro and In Vivo” (Pharmaceuticals, 2022).

A word on the IC50: it is the concentration that inhibits the measured activity by half. For the compound `CC1(C)C(=O)C(C#N)=C[C@]2(C)C3=CC(=O)[C@@H]4[C@@H]5C[C@@](C)(C(=O)NCCc6c[nH]c7ccccc67)CC[C@]5(C)CC[C@@]4(C)[C@]3(C)CC[C@@H]12` [compound 12], in series [1], the IC50 came to 1500 ± 100 nM. Also, in series [2] (U87 tumor-bearing nude mice, 20 mg/kg i.p.), the “concentration of 12 in brain tissue of tumor-bearing mice” value was 118 ng/g. In addition, the “concentration of 12 in brain tissue” value in series [2] (nude mice, 50 mg/kg i.p., thrice a week, 48 h after last injection) amounted to 490 ng/g. Besides, the “decrease in numbers of tubular structures compared with untreated cells” value in series [3] is recorded as 2.2 fold. In addition, the cell survival in series [4] is on record as at least 90%.
